# Source: patent US8496928B2, “Method for preventing and treating cardiovascular diseases with BRCA1” (priority 2008, dated 2013)
# Columns and labels:
# Format in all cases: cell-based, human
# HUVECs [1] = assay: HUVEC apoptosis assays (Annexin V-FITC/PI flow cytometry, cleaved caspase-3, DNA fragmentation); details: ad-null infected HUVECs, TNFα 20 ng/ml 24 hours
# Experimental: In FIG. 23A ad-null or ad-BRCA1 infected HUVECs were treated with TNFα (20 ng/ml) for 24 hours. Cells were harvested for Annexin V-FITC and Propidium Iodide staining followed by flow cytometry. Total apoptotic cells are shown as mean±SD (n=3 in triplicate, **p<0.01). In FIG. 23B, HUVECs were treated with either siBRCA1 (10 nM) or scrambled siRNA (10 nM) for 24 hours. BRCA1-silenced and control HUVECs were treated with TNFα (20 ng/ml), stained with Annexin V-FITC and Propidium Iodide, and analyzed by flow cytometry. The percentage of total apoptotic cells are presented as mean±SD (n=3 in triplicate, **p<0.01). […] Data was calculated as the percentage of total apoptotic cells and presented as mean±SD (n=3 in triplicate, **p<0.01).
# FIG. 31 is a bar graph showing protection of HUVECs against doxorubicin-induced apoptosis by BRCA1 overexpression. […] Data was calculated as the percentage of total apoptotic cells and presented as mean±SD (n=3 in triplicate, *p<0.01 vs. Ad-null group, †p<0.01 vs. Ad-null+2 μM Dox group). […]
# Human umbilical vein endothelial cells (HUVECs) were purchased from Cambrex and cultured in MCDB-131 complete medium (Cambrex Corporation). […] These concentrations were determined from pilot optimization studies. […]
# Apoptotic and necrotic cell death were assessed in ad-BRCA1 and ad-null infected HUVECs by flow cytometry coupled with the BD Annexin V-FITC Apoptosis Detection Kit. […]
# HUVECs [2] = assay: Matrigel tube formation assay; details: TNFα 20 ng/ml
# Experimental: In FIG. 24A ad-null or ad-BRCA1 infected cells were trypsinized and seeded in the presence and absence of TNFα (20 ng/ml) on coated inserts and a colorimetric assay was performed after 24 hours. Migration was calculated as a percentage of ad-null controls. (n=4, **p<0.01). In FIG. 24B, ad-null or ad-BRCA1 infected HUVECs were seeded onto matrigel in the presence or absence of TNFα (20 ng/ml). Images were taken 5 hours after seeding (original magnification 20×). In FIG. 24C data was semi-quantitatively analyzed by counting tubular structures in four fields per group. Data is presented as mean±SD (n=3 in triplicate, *p<0.05, **p<0.01). HUVECs infected with ad-null or ad-BRCA1 were treated for 24 hours with TNFα (20 ng/ml). VCAM1 (FIG. 24D, FIG. 24E), ICAM1 (FIG. 24F, FIG. 24G) and E-selectin (FIG. 24H, FIG. 24I) protein and transcript expression were determined in cell extracts via western blots and real-time PCR, respectively. GAPDH was used as a loading control for western blots and as a housekeeping gene for real-time PCR. Data are expressed as mean±SD (n=3, **p<0.01).
# HUVEC-associated angiogenesis was measured with the In Vitro Angiogenesis Assay Kit from Chemicon. […] Tube formation was quantified by counting the number of tubes, branching points and network of tubes in randomly captured microscopic fields and by scoring the values for each type of structure. […]
# GADD45, p21 and p53 = assay: Western blot of GADD45, p21 and p53 in HUVECs; details: TNFα
# Experimental: In FIG. 25A cell cycle progression was assessed after adenoviral (ad-null or ad-BRCA1) infection of HUVECs and 24 hours of TNFα (20 ng/ml) treatment followed by Propidium Iodide staining coupled with flow cytometry. […] GAPDH was used as a loading control.
# Western blot analysis was performed according to standard procedures. Proteins from whole cell lysates of HUVECs were resolved on SDS-polyacrylamide gels and transferred to nitrocellulose membranes (Bio-Rad). Membranes were probed with primary antibodies from Santa Cruz (BRCA1), Cell Signaling (p53, p21, Ser1177-phospho-eNOS, Akt, Ser473-phospho-Akt, cleaved caspase-3), Chemicon (GADD45a, GAPDH) and BD (eNOS). Immunoblots were incubated with the appropriate horseradish peroxidase-associated secondary antibodies before signals were visualized by chemiluminescence via the ECL detection system (GE Healthcare).
substance,measurement,setting,value
TNFα,apoptosis,HUVECs [1],significant apoptosis
same,capacity to form vessel-like tubular structures,HUVECs [2],reduced
same,protein levels of p53 and GADD45,"GADD45, p21 and p53",no influence
same,p21 protein levels,"GADD45, p21 and p53; in the presence and absence of BRCA1 overexpression",significantly elevate
